Reference: article PMC12064818, “A general assay platform to study protein pharmacology using ligand-dependent structural dynamics” (Nature Communications, 2025)
Where two headings read alike, the source gives them in different places.

Assays:
NLuc = biological target: T1, NLuc (Oplophorus gracilirostris, UniProt Q9GV45, A31E/A60N/A81I/F95D/I117V/K70R/L54V/L99Q/M102K/N193R/P142E/Q151K/Q38R/Q45L/V71I/Y165I); assay type: biochemical; details: - ATP
T1 construct: His tag (inferred from IMAC purification); made in house; host or cells: E. coli
T1 sequence (Q9GV45 other isoform, or with tags, fused parts or gaps with the stated changes): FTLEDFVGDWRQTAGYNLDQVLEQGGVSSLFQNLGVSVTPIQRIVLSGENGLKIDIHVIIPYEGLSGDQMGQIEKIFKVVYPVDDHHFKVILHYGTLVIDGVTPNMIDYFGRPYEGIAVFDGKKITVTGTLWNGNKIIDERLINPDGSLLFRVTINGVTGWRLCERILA
Procedure, shortened: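 Test compounds added to 1 nM NLuc in PBS with 0.05% IGEPAL, ± ATP. Nano-Glo reagent added and incubated 10 min before luminescence read.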

FLuc-C-HiBiT = biological target: T2, FLuc-C-HiBiT (Photinus pyralis, UniProt P08659); test: biochemical; details: enzyme activity, 10 uM ATP; read-out: IC50 or SDR50 (mM) / FLuc E
T2 construct: firefly luciferase with C-terminal HiBiT tag, E. coli expressed
T2 sequence (P08659 whole entry, looked up): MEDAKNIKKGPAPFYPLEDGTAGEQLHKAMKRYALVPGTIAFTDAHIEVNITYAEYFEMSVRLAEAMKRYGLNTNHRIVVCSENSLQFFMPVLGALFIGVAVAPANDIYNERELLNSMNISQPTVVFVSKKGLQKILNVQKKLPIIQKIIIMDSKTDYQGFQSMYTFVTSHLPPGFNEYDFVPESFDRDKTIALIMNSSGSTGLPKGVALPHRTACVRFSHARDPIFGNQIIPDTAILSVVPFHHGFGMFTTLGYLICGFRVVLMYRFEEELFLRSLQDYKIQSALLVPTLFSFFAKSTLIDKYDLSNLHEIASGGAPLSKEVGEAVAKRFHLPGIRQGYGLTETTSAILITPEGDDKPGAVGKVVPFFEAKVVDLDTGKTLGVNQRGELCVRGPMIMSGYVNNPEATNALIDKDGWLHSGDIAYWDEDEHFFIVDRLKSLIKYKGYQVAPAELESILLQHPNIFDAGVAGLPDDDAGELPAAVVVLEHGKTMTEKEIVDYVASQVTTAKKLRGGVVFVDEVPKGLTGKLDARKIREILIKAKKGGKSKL

[1] = biological target: FLuc-C-HiBiT (firefly luciferase) (Photinus pyralis, UniProt P08659, form not given/L550V); test: SDR assay, FLuc-C-HiBiT; details: SDR max. response, clade S
Chain of FLuc-C-HiBiT (firefly luciferase) (P08659 2-550 L550V, form open): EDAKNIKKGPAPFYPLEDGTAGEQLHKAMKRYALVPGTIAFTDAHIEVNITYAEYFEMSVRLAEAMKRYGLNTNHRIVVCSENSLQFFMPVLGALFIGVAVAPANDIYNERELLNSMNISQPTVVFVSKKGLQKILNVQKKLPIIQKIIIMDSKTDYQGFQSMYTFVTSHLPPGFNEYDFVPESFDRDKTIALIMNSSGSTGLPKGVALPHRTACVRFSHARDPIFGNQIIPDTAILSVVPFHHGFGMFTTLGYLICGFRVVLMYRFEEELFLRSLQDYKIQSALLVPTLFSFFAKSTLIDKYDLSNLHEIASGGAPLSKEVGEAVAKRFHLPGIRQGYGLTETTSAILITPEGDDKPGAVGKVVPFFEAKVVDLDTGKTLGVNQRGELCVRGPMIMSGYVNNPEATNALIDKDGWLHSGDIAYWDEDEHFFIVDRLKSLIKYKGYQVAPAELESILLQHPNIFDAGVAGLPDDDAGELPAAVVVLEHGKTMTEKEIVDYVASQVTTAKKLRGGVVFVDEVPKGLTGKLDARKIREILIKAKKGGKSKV

P. pyralis FLuc = P. pyralis FLuc (Photinus pyralis, UniProt P08659); test: FLuc enzymatic luminescence assay, P. pyralis FLuc; assay type: biochemical; details: FLuc enzymatic assay; for IC50: read-out: IC50 or SDR50 (mM) FLuc E
Chain of P. pyralis FLuc (P08659 whole entry): as the sequence (P08659 whole entry, looked up) above
Procedure, shortened: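 Runs with and without 10 µM ATP: compounds were pre-incubated with FLuc (1–10 nM, PBS pH 7.4) at ambient temperature, light-protected, for 30–60 min. Luminescence was imaged 5 min after adding 10 µM D-luciferin (final). Inhibition was scaled between DMSO neutral and no-enzyme controls.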

[2] = biological target: FLuc-C-NLuc (firefly luciferase) (Photinus pyralis, UniProt P08659, form not given/L550V); test: SDR assay, FLuc-C-NLuc; details: - ATP
Chain of FLuc-C-NLuc (firefly luciferase) (P08659 2-550 L550V, form open): as the sequence (P08659 2-550 L550V, form open) above

| Compound | Efficacy (%) NLuc (- ATP) (NLuc) | IC50 (FLuc-C-HiBiT) | % Activity (max response, + ATP) [1] | % Activity (max response, - ATP) [1] | pIC50 or pSDR50 FLuc E (P. pyralis FLuc) | Efficacy (%) FLuc E (P. pyralis FLuc; Clade S follow-up) | IC50 (P. pyralis FLuc) | Efficacy (%) FLuc-C-NLuc SDR (-ATP) [2] | pIC50 or pSDR50 FLuc E (P. pyralis FLuc; Clade S follow-up) | IC50 (P. pyralis FLuc; Clade S follow-up) |
| --- | --- | --- | --- | --- | --- | --- | --- | --- | --- | --- |
| CC(NC(=O)C1CCN(C(=O)c2ncn3c2COC(c2ccccc2)C3)CC1)c1ccc(F)cc1 (centres unmarked) [NCGC00449793-01] | 0.00% | 0.00495 mM | 272.56% | 0.00% | 5.16 | -92.83% | 0.00699 mM | 0.00% |  |  |
| O=C(NCCc1ccccc1)C1CCN(C(=O)c2ncn3c2COC(c2ccccc2)C3)CC1 (centres unmarked) [NCGC00449794-01] | 0.00% | 0.00248 mM | 379.45% | 0.00% | 5.66 | -92.17% | 0.00221 mM | 0.00% |  |  |
| O=C(NCCc1cccs1)C1CCN(C(=O)c2ncn3c2COC(c2ccccc2)C3)CC1 (centres unmarked) [NCGC00449796-01] | 0.00% | 0.00442 mM | 316.37% | 0.00% | 5.26 | -97.05% | 0.00555 mM | 0.00% |  |  |
| O=C(NCC1CC1)C1CCN(C(=O)c2ncn3c2COC(c2ccccc2)C3)CC1 (centres unmarked) [NCGC00449799-01] | 0.00% | 0.007 mM | 355.70% | 0.00% | 5.11 | -97.90% | 0.00784 mM | 0.00% |  |  |
| O=C(NCc1ccncc1)C1CCN(C(=O)c2ncn3c2COC(c2ccccc2)C3)CC1 (centres unmarked) [NCGC00449800-01] | 0.00% | 0.00176 mM | 375.34% | 0.00% | 6.01 | -91.84% | 0.00099 mM | 0.00% |  |  |
| O=C(NCc1cc(F)ccc1F)C1CCN(C(=O)c2ncn3c2COC(c2ccccc2)C3)CC1 (centres unmarked) [NCGC00449804-01] | 0.00% | 0.00313 mM | 321.30% | 16.31% | 5.41 | -84.67% | 0.00393 mM | 0.00% |  |  |
| O=C(NCc1ccncc1)C1CCN(C(=O)c2ncn3c2COC(c2ccc(F)cc2)C3)CC1 (centres unmarked) [NCGC00449833-01] | -20.01% | 0.0111 mM | 157.03% | 0.00% |  | -87.47% |  | 0.00% | 5.21 | 0.00623 mM |
| Cc1ccc(C2Cn3cnc(C(=O)N4CCC(C(=O)NCc5ccco5)CC4)c3CO2)cc1 (centres unmarked) [NCGC00449893-01] | 0.00% | 0.00881 mM | 104.01% | 0.00% |  | -75.71% |  | 0.00% | 5.01 | 0.00988 mM |
| O=C(Nc1ccccc1)C1CCN(C(=O)c2ncn3c2COC(c2ccccc2)C3)CC1 (centres unmarked) [NCGC00449901-01] | 0.00% | 0.00157 mM | 354.42% | 0.00% |  | -101.51% |  | 0.00% | 5.86 | 0.0014 mM |
| O=C(Nc1ccc(F)c(F)c1)C1CCN(C(=O)c2ncn3c2COC(c2ccc(F)cc2)C3)CC1 (centres unmarked) [NCGC00449940-01] | 0.00% |  | 125.80% | 0.00% |  | -73.07% |  | 0.00% | 4.96 | 0.0111 mM |
| Cc1ccc(NC(=O)C2CCN(C(=O)c3ncn4c3COC(c3ccc(F)cc3)C4)CC2)c(F)c1 (centres unmarked) [NCGC00449944-01] | 0.00% |  | 140.99% | 7.55% |  | -69.67% |  | 0.00% | 4.96 | 0.0111 mM |
